In test [1] the test system is ZRPELP1 cells. As to the kind of experiment: Initial screen, proliferation assay of PELP1-overexpressing breast cancer cells. The class given is cell-based, Human. The settings on record: FIG. 1B. The procedure: FIGS. 1A-D. (FIG. 1A) Diagram for yeast two hybrid screen to identify PELP1 binding peptides. Four regions of PELP1 were tagged with the binding domain and a library of 10^6 random peptides (Clontech) were bound to an activation domain. The number of positive colonies per region of PELP1 are shown in the graph. (FIG. 1B) A proliferation assay was performed with […]1 cells plated in a 96 well plate, treated with peptide every 3 days and absorbance was measured at 7 days. (FIG. 1C) ZR75 were plated in a 6-well plate on coverslips in 8% RPMI and treated with 10 uM FITC labeled peptide for 30, 60, or 120 minutes. They were then fixed with pararformaldehyde, stained for PELP1 (red) and DAPI (blue), and imaged by confocal microscopy to monitor intracellular delivery. (FIG. 1D) ZR75 cells were starved of estrogen for 72 hours and treated with estradiol 10^-7 M for 12 hours. Nuclear lysate was incubated with biotin-tagged peptides bound to avidin beads for one hour. Beads were washed, run on SDS-PAGE gel and probed for PELP1 expression. Input of nuclear lysate is shown as control. Cell proliferation rates were measured by using MTT Cell Viability Assay in 96-well plates. Model cells were seeded in 96-well plates (1×10^3 cells/well) in DMEM or RPMI medium containing 10% serum. After an overnight incubation, cells were treated with varying concentrations of the peptides for 3-7 days and growth inhibition was determined by using traditional MTT assay (Sigma) following manufacturer's instructions.

Test [2] relates to ZRPELP1 cells. The test can be described thus: Soft agar colony formation assay. The class given is cell-based, Human. The settings on record: 10 μM every three days, colonies counted day 14, FIG. 5C. As for the experimental part: FIGS. 5A-D. (FIG. 5A) ZR75vec, ZR75PELP1, MCF7vec and MCF7PELP1 cells were plated in the top of a Boyden chamber transwell, treated with TAT, PIP1 or PIP2 (10 μM) and absorbance was measured at 12 hours in triplicate. (FIG. 5B) MCF7vec, MCFP7ELP1, ZR75vec and ZR75PELP1 cells were treated in triplicate with TAT, PIP1 or PIP2 (10 μM) every 3 days, fixed with methanol on day 10 and stained with crystal violet. Average colonies per well are shown. (FIG. 5C) ZR75vec and ZR75PELP1 cells were plated in triplicate in agar with 8% RPMI with TAT, PIP1 or PIP2 (10 μM). Colonies were counted on day 14, representative images are shown on right. (FIG. 5D) ZR75 cells were plated on coverslips in triplicate and treated with TAT or PIP1 (10 μM) for 24 hours. Cells were fixed with paraformaldehyde and labeled with TUNEL and DAPI, representative images are shown on right.
Model cells MCF7, MCF7-PELP1, ZR75 and ZR75-PELP1 were seeded in a 0.6% agar solution with RPMI/10% FBS over a base agar layer in 35 mm plates in triplicate with TAT, PIP1, or PIP2 (10 μM). Media with peptide was added every 3 days and colonies were counted after 14 days.

Test [3] relates to MCF7PELP1 Cd44high/CD22low cells. The test can be described thus: Mammosphere formation and self-renewal assay on FACS-sorted cells. The class given is cell-based, Human. The text has this: FIGS. 6A-C. (FIG. 6A) ZR75, ZR75PELP1 and ZR75PELP1KD cells were FACS sorted for CD44-APC and CD24-PE, and quantification of percentage of CD44high/CD24low cells is shown. (FIG. 6B) MCF7PELP1 cells were FACS sorted for CD44high/CD24low cells and plated in triplicate in serum free mammosphere media with TAT or PIP1 in various concentrations. Mammospheres were counted and imaged on day 7. Representative images are shown on right. (FIG. 6C) Mammospheres from previous assay (C) were dissociated and replated in serum free mammosphere media. Mammospheres were counted and imaged on day 7. Representative images are shown on right. ZR75PELP1 and MCF7PELP1 cells were FACS sorted for CD44-APC^high (Milteny Biotec) and CD24-PE^low (Milteny Biotec) cell surface markers. A single cell suspension of model cells ZR75-PELP1 were seeded in mammosphere media in a low adherent 96-well plate with TAT or PIP (10, 20 or 50 μM). Media containing peptide was added on day 4 and mammospheres were counted and imaged on day 8 (Shaw et al., 2012).

Test [4] has as its system T98G, LN229 and U251 glioma cells and patient-derived primary GBM cells. As to the kind of experiment: MTT proliferation assay, glioma cell lines and primary GBM cells. The class given is cell-based. The settings on record: FIGS. 15A-D. The procedure:
FIGS. 15A-D. PIPs inhibit proliferation of glioma cells. (FIGS. 15A-B) T98G, LN229 and U251 glioma cells were treated with vehicle or varying concentration of PIP1 or PIP3, and proliferation was measured by using the MTT assay. (FIGS. 15C-D) Patient-derived primary GBM cells were treated with PIP1 or PIP3 and proliferation was measured using the MTT assay. Cell proliferation rates were measured by using MTT Cell Viability Assay in 96-well plates. Model cells were seeded in 96-well plates (1×10^3 cells/well) in DMEM or RPMI medium containing 10% serum. After an overnight incubation, cells were treated with varying concentrations of the peptides for 3-7 days and growth inhibition was determined by using traditional MTT assay (Sigma) following manufacturer's instructions.
(Tetrazolium dyes change colour on reduction, which living cells bring about.)

Entries after “also recorded” stand apart in the source; their conditions may differ.

As to GRKKRRQRRRGGMVEFRWSCPGRRKAKA [PIP1], in the test with ZRPELP1 cells [1], the “efficiency at inhibiting proliferation, PIP1 compared with PIP2” value is on record as “more efficient at inhibiting proliferation than PIP2”. Also, in the test with ZRPELP1 cells [1] (peptide every 3 days, absorbance at 7 days), the “PELP1-mediated breast cancer cell proliferation” value is listed as “significantly inhibit PELP1-mediated proliferation”. For the same sequence, the “colony formation in soft agar (anchorage independence)” value in the test with ZRPELP1 cells [2] is “substantial decrease in colony formation”. Moreover, in test [3] (10, 20 and 50 μM, FIG. 6B), the number of mammospheres entry is “significant decrease in the number of mammospheres” and the “size of the mammospheres” value is listed as “substantially decreased”. Also, in test [3] (dissociated and replated, FIG. 6C), the “self-renewal capacity of replated mammospheres” value is on record as “decreased self-renewal capacity; also recorded: inhibits the self-renewal of the cancer stem cells”. Further, in test [4], the “concentration of potent activity on glioma proliferation” value was found to be 50 µM. The “proliferation of glioma cell lines and primary GBM cells” value in test [4] (varying concentration) is “significantly reduced their proliferation in a dose-dependent manner”.

For the origin of these results see patent US10682388B2, “Targeting of PELP1 in cancer therapy” (THE BOARD OF REGENTS OF THE UNIVERSITY OF TEXAS SYSTEM, priority 2014, dated 2020).
